Where two headings read alike, the source gives them in different places. Where a SMILES comes first, the peptide text is derived from it. Where no end group is shown, it is not given here. [ ]: non-standard residue; d: D form. dPhe(F5) = N[C@H](Cc1c(F)c(F)c(F)c(F)c1F)C(=O)O; Igl = N[C@H](C(=O)O)C1Cc2ccccc2C1; Hyp = O=C(O)[C@@H]1C[C@@H](O)CN1; 2Thi = N[C@@H](Cc1cccs1)C(=O)O
Experiments:
[1] = biological target: T1, bradykinin receptors in Guinea Pig Ileum (Cavia porcellus, UniProt O70526); test: Guinea Pig Ileum functional assay; format: cell-based
T1 construct: describes the Guinea Pig Ileum assay used to analyze the present compounds; from tissue; host or cells: isolated guinea pig ileum
T1 sequence (O70526 1-372): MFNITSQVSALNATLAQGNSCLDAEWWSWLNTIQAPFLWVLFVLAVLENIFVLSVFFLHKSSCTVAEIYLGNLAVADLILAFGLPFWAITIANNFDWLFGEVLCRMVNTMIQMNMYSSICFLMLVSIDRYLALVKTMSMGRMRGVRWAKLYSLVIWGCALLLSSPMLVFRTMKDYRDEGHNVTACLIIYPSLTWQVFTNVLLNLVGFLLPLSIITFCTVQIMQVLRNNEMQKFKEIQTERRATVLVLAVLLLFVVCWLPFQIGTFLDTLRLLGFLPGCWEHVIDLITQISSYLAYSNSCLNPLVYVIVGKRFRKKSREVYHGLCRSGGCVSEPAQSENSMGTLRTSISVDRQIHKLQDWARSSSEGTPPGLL
From the text: 5. Guinea Pig Ileum functional assay
Trautshold, Handbook of Expt. Pharmacol. Vol 25, Springer Verlag pp 53-55 (1970) describes the Guinea Pig Ileum assay used to analyze the present compounds. The Trautshold method was used without changes to the parameters. U.S. Pat. No. 4,693,993, at Column 14, line 10 gives a general description of data analysis for this assay.
In this table, I=inhibitor, and numbers in parenthesis are pA2. Agonist activity are given as percent BK activity.

[2] = biological target: T2, bradykinin receptors in Rat Uterus (Rattus norvegicus, UniProt P25023); test: Rat Uterus functional assay; format: cell-based
T2 construct: describes the Rat Uterus assay used to analyze the present compounds; from tissue; host or cells: isolated rat uterus
T2 sequence (P25023 1-396): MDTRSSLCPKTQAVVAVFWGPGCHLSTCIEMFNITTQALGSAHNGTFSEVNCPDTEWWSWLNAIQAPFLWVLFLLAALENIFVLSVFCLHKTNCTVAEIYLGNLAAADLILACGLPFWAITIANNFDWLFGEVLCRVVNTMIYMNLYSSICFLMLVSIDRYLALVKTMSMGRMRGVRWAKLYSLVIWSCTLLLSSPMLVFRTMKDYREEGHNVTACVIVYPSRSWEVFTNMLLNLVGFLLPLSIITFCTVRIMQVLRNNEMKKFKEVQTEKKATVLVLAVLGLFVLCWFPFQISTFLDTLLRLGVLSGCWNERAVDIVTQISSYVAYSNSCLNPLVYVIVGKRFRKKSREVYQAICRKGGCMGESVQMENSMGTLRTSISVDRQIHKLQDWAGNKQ
From the text: 4. Rat Uterus functional assay Trautshold, Handbook of Expt. Pharmacol. […] The Trautshold method was used without changes to the parameters. U.S. Pat. No. 4,693,993, at Column 14, line 10 gives a general description of data analysis for this assay. In this table, I=inhibitor, and numbers in parenthesis are pA2. Agonist activity are given as percent BK activity.

BK action = details: rabbits; subcutaneous injection; cited from earlier work
hypotensive action of BK = details: rats, cited from earlier work
[3] = cited from earlier work
[4] = number in parenthesis is pA2, read-out: Ileum, pA2 (I=inhibitor) (converted)

Compound | Kb [1, 4] [nM] | Kb [2] [nM] | further results
N=C(N)NCCC[C@@H](N)C(=O)N[C@@H](CCCNC(=N)N)C(=O)N1CCC[C@H]1C(=O)N1C[C@H](O)C[C@H]1C(=O)NCC(=O)N[C@@H](Cc1cccs1)C(=O)N[C@@H](CO)C(=O)N1Cc2ccccc2C[C@@H]1C(=O)N[C@@H](Cc1c(F)c(F)c(F)c(F)c1F)C(=O)N[C@@H](CCCNC(=N)N)C(=O)O [Compound B10168, DArg-Arg-Pro-Hyp-Gly-Thi-Ser-DTic-f5f-Arg] | 3160 | – | Uterus, agonist activity as percent BK activity [2]: 4%
CC(C)C[C@H](NC(=O)[C@@H](Cc1c(F)c(F)c(F)c(F)c1F)NC(=O)[C@H](CO)NC(=O)[C@H](Cc1cccs1)NC(=O)CNC(=O)[C@@H]1C[C@@H](O)CN1C(=O)[C@@H]1CCCN1C(=O)[C@H](CCCNC(=N)N)NC(=O)[C@H](N)CCCNC(=N)N)C(=O)N[C@@H](CCCNC(=N)N)C(=O)O [Compound B10172, DArg-Arg-Pro-Hyp-Gly-Thi-Ser-Df5f-Leu-Arg] (H-[dR]RP[Hyp]G[2Thi]S[dPhe(F5)]LR-OH; N-terminus and C-terminus assumed) | 50.1 | 5.01 | –
CC(C)C[C@H](NC(=O)[C@@H](Cc1c(F)c(F)c(F)c(F)c1F)NC(=O)[C@H](CO)NC(=O)[C@@H](NC(=O)CNC(=O)[C@@H]1C[C@@H](O)CN1C(=O)[C@@H]1CCCN1C(=O)[C@H](CCCNC(=N)N)NC(=O)[C@H](N)CCCNC(=N)N)C1Cc2ccccc2C1)C(=O)N[C@@H](CCCNC(=N)N)C(=O)O [Compound B10174, DArg-Arg-Pro-Hyp-Gly-Igl-Ser-Df5f-Leu-Arg] (H-[dR]RP[Hyp]G[Igl]S[dPhe(F5)]LR-OH; N-terminus and C-terminus assumed) | 6.31 | 7.94 | –
N=C(N)NCCC[C@@H](N)C(=O)N[C@@H](CCCNC(=N)N)C(=O)N1CCC[C@H]1C(=O)N1C[C@H](O)C[C@H]1C(=O)NCC(=O)N[C@H](C(=O)N[C@@H](CO)C(=O)N[C@@H](C(=O)N[C@@H](Cc1c(F)c(F)c(F)c(F)c1F)C(=O)N[C@@H](CCCNC(=N)N)C(=O)O)C1Cc2ccccc2C1)C1Cc2ccccc2C1 [Compound B10178, DArg-Arg-Pro-Hyp-Gly-Igl-Ser-DIgl-f5f-Arg] | 398 | 31600 | –
N=C(N)NCCC[C@@H](N)C(=O)N[C@@H](CCCNC(=N)N)C(=O)N1CCC[C@H]1C(=O)N1C[C@H](O)C[C@H]1C(=O)NCC(=O)N[C@H](C(=O)N[C@@H](CO)C(=O)N[C@H](Cc1c(F)c(F)c(F)c(F)c1F)C(=O)N[C@H](C(=O)N[C@@H](CCCNC(=N)N)C(=O)O)C1CCCCC1)C1Cc2ccccc2C1 [Compound B10180, DArg-Arg-Pro-Hyp-Gly-Igl-Ser-Df5f-Chg-Arg] | 7.94 | 6.31 | –
N=C(N)NCCC[C@@H](N)C(=O)N[C@@H](CCCNC(=N)N)C(=O)N1CCC[C@H]1C(=O)N1C[C@H](O)C[C@H]1C(=O)NCC(=O)N[C@@H](Cc1cccs1)C(=O)N[C@@H](CO)C(=O)N[C@H](Cc1c(F)c(F)c(F)c(F)c1F)C(=O)N(CC(=O)N[C@@H](CCCNC(=N)N)C(=O)O)C1CCCCCC1 [Compound B10204, DArg-Arg-Pro-Hyp-Gly-Thi-Ser-Df5f-Nc7G-Arg] | 12.6 | 631 | –
N=C(N)NCCC[C@@H](N)C(=O)N[C@@H](CCCNC(=N)N)C(=O)N1CCC[C@H]1C(=O)N1C[C@H](O)C[C@H]1C(=O)NCC(=O)N[C@H](C(=O)N[C@@H](CO)C(=O)N[C@H](Cc1c(F)c(F)c(F)c(F)c1F)C(=O)N(CC(=O)N[C@@H](CCCNC(=N)N)C(=O)O)C1CCCCCC1)C1Cc2ccccc2C1 [Compound B10206, DArg-Arg-Pro-Hyp-Gly-Igl-Ser-Df5f-Nc7G-Arg] | 15.8 | 1.26 | –
N=C(N)NCCC[C@@H](N)C(=O)N[C@@H](CCCNC(=N)N)C(=O)N1CCC[C@H]1C(=O)N1C[C@H](O)C[C@H]1C(=O)NCC(=O)N[C@@H](Cc1cccs1)C(=O)N[C@@H](CO)C(=O)N[C@H](Cc1c(F)c(F)c(F)c(F)c1F)C(=O)N(CC(=O)N[C@@H](CCCNC(=N)N)C(=O)O)C1CCCCC1 [Compound B10208, DArg-Arg-Pro-Hyp-Gly-Thi-Ser-Df5f-NchG-Arg] | – | – | Kb ([1]; Ileum, pA2 (I=inhibitor), number in parenthesis is pA2): 2 nM; Uterus, agonist activity as percent BK activity ([2]; rat uterus, agonist activity): 14.0%
N=C(N)NCCC[C@@H](N)C(=O)N[C@@H](CCCNC(=N)N)C(=O)N1CCC[C@H]1C(=O)N[C@H](C(=O)NCC(=O)N[C@H](C(=O)N[C@@H](CO)C(=O)N[C@H](Cc1c(F)c(F)c(F)c(F)c1F)C(=O)N1[C@H](C(=O)N[C@@H](CCCNC(=N)N)C(=O)O)C[C@@H]2CCCC[C@@H]21)C1Cc2ccccc2C1)C1Cc2ccccc2C1 [Compound B10214, DArg-Arg-Pro-Igl-Gly-Igl-Ser-Df5f-Oic-Arg] | 7.94 | 6.31 | –
N=C(N)NCCC[C@@H](N)C(=O)N[C@@H](CCCNC(=N)N)C(=O)N1CCC[C@H]1C(=O)N[C@@H](C(=O)NCC(=O)N[C@H](C(=O)N[C@@H](CO)C(=O)N[C@H](Cc1c(F)c(F)c(F)c(F)c1F)C(=O)N1[C@H](C(=O)N[C@@H](CCCNC(=N)N)C(=O)O)C[C@@H]2CCCC[C@@H]21)C1Cc2ccccc2C1)C1Cc2ccccc2C1 [Compound B10216, DArg-Arg-Pro-DIgl-Gly-Igl-Ser-Df5f-Oic-Arg] | 158 | 39.8 | –
N=C(N)NCCC[C@H](NC(=O)[C@H](Cc1c(F)c(F)c(F)c(F)c1F)NC(=O)[C@@H](Cc1c(F)c(F)c(F)c(F)c1F)NC(=O)[C@H](CO)NC(=O)[C@@H](NC(=O)CNC(=O)[C@@H]1C[C@@H](O)CN1C(=O)[C@@H]1CCCN1C(=O)[C@H](CCCNC(=N)N)NC(=O)[C@@H](N)CCCNC(=N)N)C1Cc2ccccc2C1)C(=O)O [Compound B10230, Arg-Arg-Pro-Hyp-Gly-Igl-Ser-Df5f-f5f-Arg] | 20 | 1580 | –
N=C(N)NCCC[C@@H](N)C(=O)N[C@@H](CCCNC(=N)N)C(=O)N1CCC[C@H]1C(=O)N1C[C@H](O)C[C@H]1C(=O)NCC(=O)N[C@H](C(=O)N[C@@H](CO)C(=O)N[C@H](Cc1c(F)c(F)c(F)c(F)c1F)C(=O)N[C@@H](Cc1c(F)c(F)c(F)c(F)c1F)C(=O)N[C@@H](CCCNC(=N)N)C(=O)O)C1Cc2ccccc2C1 [Compound B10232, DArg-Arg-Pro-Hyp-Gly-Igl-Ser-Df5f-f5f-Arg] | 20 | 7.94 | –
N=C(N)NCCC[C@H](NC(=O)[C@H](Cc1c(F)c(F)c(F)c(F)c1F)NC(=O)[C@@H](Cc1c(F)c(F)c(F)c(F)c1F)NC(=O)[C@H](CO)NC(=O)[C@@H](NC(=O)CNC(=O)[C@@H]1C[C@@H](O)CN1C(=O)[C@@H]1CCCN1C(=O)[C@H](CCCNC(=N)N)NC(=O)[C@H](CCCNC(=N)N)NC(=O)CCC(=O)OCCOC(=O)CCC(=O)N[C@@H](CCCNC(=N)N)C(=O)N[C@@H](CCCNC(=N)N)C(=O)N1CCC[C@H]1C(=O)N1C[C@H](O)C[C@H]1C(=O)NCC(=O)N[C@H](C(=O)N[C@@H](CO)C(=O)N[C@H](Cc1c(F)c(F)c(F)c(F)c1F)C(=O)N[C@@H](Cc1c(F)c(F)c(F)c(F)c1F)C(=O)N[C@@H](CCCNC(=N)N)C(=O)O)C1Cc2ccccc2C1)C1Cc2ccccc2C1)C(=O)O [Compound B10236, EGS-(Arg-Arg-Pro-Hyp-Gly-Igl-Ser-Df5f-f5f-Arg)2] | 39.8 | – | Kb ([2]; rat uterus, number in parenthesis is pA2, read-out: Uterus, pA2 (I=inhibitor) (converted)): 20 nM
DArg-Arg-Pro-Hyp-Gly-Igl-Ser-DIgl-Oic-Arg [Compound B9430] | – | – | duration of block of BK action (BK action): more than 24 hrs; bioavailability (hypotensive action of BK; intragastric administration): low; activity following intragastric administration (hypotensive action of BK; intragastric): active; duration of block of the hypotensive action of BK (hypotensive action of BK; single intravenous injection): more than four; duration of block of BK action (hypotensive action of BK; subcutaneous injection): 48 h
RPPGFSPFR [BK] | – | – | plasma half-life ([3]; caused by CPN): ≤ 15 s; cleavage by ACE on a single passage through the pulmonary circulation ([3]; single passage, pulmonary circulation): more than 99%
